Tests used:
PC-3 = experiment: Antiproliferative activity against human PC3 cells after 48 hrs by MTT assay; assay type: functional, cell-based; conditions: PC-3, 48 h
[1] = Photostability of the compound in anhydrous methanol solution under UV irradiation of 15 W after 24 hrs by UV-vis spectroscopic analysis
[2] = Stability of the compound in anhydrous methanol solution under dark condition after 24 hrs by UV-vis spectroscopic analysis

Row | SMILES | IC50 (PC-3) | Stability [1] | Stability [2]
1 | CCN(CCO)C1=C(/C=C/C2=[N+](C)c3ccccc3C2(C)C)CCC/C1=C\C=C1\N(C)c2ccccc2C1(C)C | 9.08 µM |  | 
2 | CN(CCO)C1=C(/C=C/C2=[N+](C)c3ccccc3C2(C)C)CCC/C1=C\C=C1\N(C)c2ccccc2C1(C)C | 9.23 µM |  | 
3 | CN(C)CCSC1=C(/C=C/C2=[N+](C)c3ccccc3C2(C)C)CCC/C1=C\C=C1\N(C)c2ccccc2C1(C)C | 6.04 µM |  | 
4 | CN(C)CCNC1=C(/C=C/C2=[N+](C)c3ccccc3C2(C)C)CCC/C1=C\C=C1\N(C)c2ccccc2C1(C)C | 13.2 µM |  | 
5 | CN1/C(=C/C=C2\CCCC(/C=C/C3=[N+](C)c4ccccc4C3(C)C)=C2Sc2ccncc2)C(C)(C)c2ccccc21.[I-] | 12.5 µM | Stable | Stable
6 | CN1/C(=C/C=C2\CCCC(/C=C/C3=[N+](C)c4ccccc4C3(C)C)=C2N2CCC(CO)CC2)C(C)(C)c2ccccc21 | 9.33 µM |  | 
7 | CN1/C(=C/C=C2\CCCC(/C=C/C3=[N+](C)c4ccccc4C3(C)C)=C2NCCO)C(C)(C)c2ccccc21.[I-] | 4.73 µM | Stable | Stable
8 | CN1/C(=C/C=C2\CCCC(/C=C/C3=[N+](C)c4ccccc4C3(C)C)=C2Oc2ccncc2)C(C)(C)c2ccccc21.[I-] | 5.22 µM | Stable | Stable
9 | COc1cccc2c1C(=O)c1c(O)c3c(c(O)c1C2=O)C[C@@](O)(C(=O)CO)C[C@@H]3O[C@H]1C[C@H](N)[C@H](O)[C@H](C)O1 [DOXORUBICIN] | 2.6 µM |  | 

— ChEMBL document CHEMBL4184087, “Synthesis, optical properties and cytotoxicity of meso-heteroatom substituted IR-786 analogs” (Bioorg Med Chem Lett, 2018)
